# Target: T1, human TrkA (Homo sapiens, UniProt P04629)
# T1 construct: purchased Lifetechnologies PV3144
# Test: Human TrkA inhibition assay
# Type: biochemical
# Conditions: human TrkA phosphorylation inhibition, ATP 500 μmol/L; read-out: IC50_nM
# Procedure: Seven point five L per well of human TrkA (PV3144, Lifetechnologies, final concentration: 1 nmol/L) suspended in the assay buffer (100 mmol/L 4-(2-hydroxyethyl)-1-piperazineethanesulfonic acid (HEPES), 10 mmol/L magnesium chloride, 0.003 vol % Brij-35, 0.004 vol % Tween20 and 1 mmol/L dithiothreitol (DTT)) was applied in a 384 well plate and the plate was pre-incubated for 15 min at room temperature with 0.4 μL of each compound (final concentration: 200 μmol/L-0.1 nM) dissolved in DMSO. Then, fluorescent substrate (FL-peptide 27, 760424, PerkinElmer, final concentration: 1.5 μmol/L) and ATP (final concentration 500 μmol/L) dissolved in the assay buffer was added in each well. After the incubation of 120 min at 37° C., fifteen μL of termination buffer (100 mmol/L HEPES, 40 mmol/L ethylenediaminetetraacetic acid (EDTA), 10 mmol/L magnesium chloride, 0.003 vol % Brij-35, 0.004 vol % Tween20, 1 mmol/L DTT and 0.16 vol % Coating Reagent 3) was added in each well to stop the enzyme reaction. Fluorescent intensities (FI) of phosphorylated and non-phosphorylated fluorescent substrates were measured by LabChip EZReader II (Caliper LifeSciences, Inc.), and conversion ratio (CR) was calculated by the following formula-1. The CR in the well applied with DMSO alone was used as a negative control and the CR in the well without applying TrkA was used as a positive control. The inhibitory effect of each compound on TrkA phosphorylation was calculated by the following formula-2. CR (%)=(FI of phosphorylated substrate/(FI of phosphorylated substrate+FI of non-phosphorylated substrate))×100 (Formula-1) Phosphorylation inhibition (%)=(1−(CR with compound treatment−CR of positive control)/(CR of negative control−CR of positive control))×100 (Formula-2)
# IC50 values (nmol/L) were determined by the logistic regression using the inhibition data in 10 points of 3-fold dilution series at a compound concentration range of 2 μmol/L to 0.1 nmol/L, or 15 points of 3-fold dilution series at the range of 200 μmol/L to 0.04 nmol/L.
# T1 sequence (P04629 33-796): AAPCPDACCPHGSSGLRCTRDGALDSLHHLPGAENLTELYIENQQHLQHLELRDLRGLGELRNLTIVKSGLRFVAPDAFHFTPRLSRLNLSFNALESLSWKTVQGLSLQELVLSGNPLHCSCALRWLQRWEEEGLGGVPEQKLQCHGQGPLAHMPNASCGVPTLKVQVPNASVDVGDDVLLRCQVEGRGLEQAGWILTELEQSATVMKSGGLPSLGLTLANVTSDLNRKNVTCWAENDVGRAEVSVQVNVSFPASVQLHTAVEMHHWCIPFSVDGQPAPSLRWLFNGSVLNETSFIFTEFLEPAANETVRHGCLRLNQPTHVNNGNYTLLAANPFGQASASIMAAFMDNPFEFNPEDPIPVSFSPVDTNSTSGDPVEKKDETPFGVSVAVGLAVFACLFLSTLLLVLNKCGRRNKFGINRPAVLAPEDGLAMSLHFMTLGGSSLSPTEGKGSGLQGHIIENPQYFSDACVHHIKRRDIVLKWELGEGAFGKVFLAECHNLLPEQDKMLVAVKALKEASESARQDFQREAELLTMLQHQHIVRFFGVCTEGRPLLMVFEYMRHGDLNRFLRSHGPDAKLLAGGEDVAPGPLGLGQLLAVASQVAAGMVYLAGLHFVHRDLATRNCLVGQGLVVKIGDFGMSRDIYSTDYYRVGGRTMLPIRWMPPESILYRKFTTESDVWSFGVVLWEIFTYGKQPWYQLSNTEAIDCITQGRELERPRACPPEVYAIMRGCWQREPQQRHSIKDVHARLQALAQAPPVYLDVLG
row,Compound,IC50 [nM]
1,COCCN1C[C@@H](NC(=O)Nc2c(C)c(-c3cnc4c(cnn4C)c3)nn2-c2ccccc2)[C@H](c2ccccc2)C1 (racemic) [Compound I-17],< 100
2,COCCN1C[C@@H](NC(=O)Nc2c(C)c(-c3cnn(C)c3)nn2-c2ccccc2)[C@H](c2cnc(Cl)s2)C1 (racemic) [Compound I-62],< 100
3,Cc1c(-c2cnn(C)c2)nn(-c2ccccc2)c1NC(=O)N[C@@H]1CN(CCOC(F)(F)F)C[C@H]1c1ccnc(F)c1 (racemic) [Compound I-20],< 100
4,COCCN1C[C@@H](NC(=O)Nc2c(C)c(-c3ccnc(C(=O)NC4CCOCC4)c3)nn2-c2ccccc2)[C@H](c2ccccc2)C1 (racemic) [Compound I-29],< 100
5,COCCN1C[C@@H](NC(=O)Nc2c(C)c(-c3cnc4cnn(C)c4c3)nn2-c2ccccc2)[C@H](c2ccccc2)C1 (racemic) [Compound I-28],< 100
6,COCCN1C[C@@H](NC(=O)Nc2c(C)c(-c3ccc4c(cnn4C)c3)nn2-c2ccccc2)[C@H](c2ccc(F)c(F)c2)C1 [Compound I-6],< 100
7,CCNC(=O)c1cc(-c2nn(-c3ccccc3)c(NC(=O)N[C@@H]3CN(CCOC)C[C@H]3c3ccccc3)c2C)ccn1 (racemic) [Compound I-46],< 100
8,CNC(=O)c1cc(-c2nn(-c3ccccc3)c(NC(=O)N[C@@H]3CN(CCOC)C[C@H]3c3ccccc3)c2C)ccn1 (racemic) [Compound I-45],< 100
9,COCCN1C[C@@H](NC(=O)Nc2c(C)c(-c3ccnc(C(=O)N(C)C)c3)nn2-c2ccccc2)[C@H](c2ccccc2)C1 (racemic) [Compound I-47],< 100
10,COCC[C@@H]1C[C@@H](NC(=O)Nc2c(C)c(-c3ccc(OCc4ccccc4)nc3)nn2-c2ccccc2)[C@H](c2ccccc2)C1 [Compound I-22],< 100
11,COCCN1C[C@@H](NC(=O)Nc2c(C)c(-c3cnn(C)c3)nn2-c2ccccc2)[C@H](c2cnc(F)c(Cl)c2)C1 (racemic) [Compound I-19],< 100
12,COCCN1C[C@@H](NC(=O)Nc2c(C)c(-c3cnn(C)c3)nn2-c2ccccc2)[C@H](c2cc(F)nc(Cl)c2)C1 (racemic) [Compound I-39],< 100
13,CNC(=O)c1cc(-c2nn(-c3ccccc3)c(NC(=O)N[C@@H]3CN(CCOC)C[C@H]3c3ccccc3)c2C)cnc1OC (racemic) [Compound I-53],< 100
14,COCCN1C[C@@H](NC(=O)Nc2c(C)c(-c3cnc(OC)c(C(=O)NC4CC(F)(F)C4)c3)nn2-c2ccccc2)[C@H](c2ccccc2)C1 (racemic) [Compound I-81],< 100
15,COCCN1C[C@@H](NC(=O)Nc2c(C)c(-c3ccc4c(cnn4C)c3)nn2-c2ccccc2)[C@H](c2cnc(F)c(F)c2)C1 (racemic) [Compound I-26],< 100
16,COCCN1C[C@@H](NC(=O)Nc2c(C)c(-c3cnc4c(c3)ncn4C)nn2-c2ccccc2)[C@H](c2ccccc2)C1 (racemic) [Compound I-51],< 100
17,COCCN1C[C@@H](NC(=O)Nc2c(C)c(-c3cnc4c(c3)c(CO)nn4C)nn2-c2ccccc2)[C@H](c2ccccc2)C1 (racemic) [Compound I-65],< 100
18,CNC(=O)c1ncc(-c2nn(-c3ccccc3)c(NC(=O)N[C@@H]3CN(CCOC)C[C@H]3c3ccccc3)c2C)cc1C (racemic) [Compound I-61],< 100
19,COCCN1C[C@@H](NC(=O)Nc2c(C)c(-c3ccc(C(=O)NCC(F)(F)F)nc3)nn2-c2ccccc2)[C@H](c2ccccc2)C1 (racemic) [Compound I-12],< 100
20,COCCN1C[C@@H](NC(=O)Nc2c(C)c(-c3ccc4c(cnn4C)c3)nn2-c2ccccc2)[C@H](c2ccccc2)C1 (racemic) [Compound I-3],< 100
21,COCCN1C[C@@H](NC(=O)Nc2c(C)c(-c3ccnc(C(=O)NO)c3)nn2-c2ccccc2)[C@H](c2ccccc2)C1 (racemic) [Compound I-63],< 100
22,CCN1CCC(NC(=O)c2ccc(-c3nn(-c4ccccc4)c(NC(=O)N[C@@H]4CN(CCOC)C[C@H]4c4ccccc4)c3C)cn2)CC1 (racemic) [Compound I-50],< 100

# Second part, the compound after the results:
row,IC50 [nM],Compound
1,< 100,CCOc1ncc(-c2nn(-c3ccccc3)c(NC(=O)N[C@@H]3CN(CCOC)C[C@H]3c3ccccc3)c2C)cc1C(=O)NC (racemic) [Compound I-122]
2,< 100,CNC(=O)c1cc(-c2nn(-c3ccccc3)c(NC(=O)N[C@@H]3C[C@@H](CCOC)C[C@H]3c3ccnc(F)c3)c2C)cnc1OC [Compound I-145]
3,< 100,CCOC(=O)NC(=O)c1cc(-c2nn(-c3ccccc3)c(NC(=O)N[C@@H]3CN(CCOC)C[C@H]3c3ccccc3)c2C)cnc1OC (racemic) [Compound I-157]
4,< 100,COCC[C@@H]1C[C@@H](NC(=O)Nc2c(C)c(C)nn2-c2ccccc2)[C@H](c2ccnc(F)c2)N1C [Compound I-178]
5,< 100,COCCN1C[C@@H](NC(=O)Nc2c(C)c(-c3cc(C(=O)NC[C@@H](C)O)c(=O)n(C)c3)nn2-c2ccccc2)[C@H](c2ccccc2)C1 (racemic) [Compound I-114]
6,< 100,COCCN1C[C@@H](NC(=O)Nc2c(C)c(-c3ccnc(C(=O)N[C@H]4CCOC4)c3)nn2-c2ccccc2)[C@H](c2ccccc2)C1 [Compound I-87]
7,< 100,COCC[C@@H]1C[C@@H](NC(=O)Nc2c(C)c(-c3cc(C#N)c(=O)n(C)c3)nn2-c2ccccc2)[C@H](c2ccccc2)C1 [Compound I-154]
8,< 100,COCCN1C[C@@H](NC(=O)Nc2c(C)c(-c3cnc4c(c3)nc(CO)n4C)nn2-c2ccccc2)[C@H](c2ccccc2)C1 (racemic) [Compound I-97]
9,< 100,COCC[C@@H]1C[C@@H](NC(=O)Nc2c(C)c(-c3cnc(N4CC(O)C4)nc3)nn2-c2ccccc2)[C@H](c2ccnc(F)c2)C1 [Compound I-166]
10,< 100,COCCN1C[C@@H](NC(=O)Nc2c(C)c(-c3cnc4c(c3)c(=O)n(C)n4C)nn2-c2ccccc2)[C@H](c2ccccc2)C1 (racemic) [Compound I-99]
11,< 100,COCC[C@@H]1C[C@@H](NC(=O)Nc2c(C)c(-c3ccc(N=S(C)(C)=O)nc3)nn2-c2ccccc2)[C@H](c2ccccc2)C1 [Compound I-152]
12,< 100,COCCN1C[C@@H](NC(=O)Nc2c(C)c(-c3cnc4c(c3)c(C)nn4C)nn2-c2ccccc2)[C@H](c2ccnc(F)c2)C1 (racemic) [Compound I-104]
13,< 100,COCCN1C[C@@H](NC(=O)Nc2c(C)c(-c3ccnc(C(=O)N[C@@H]4CCOC4)c3)nn2-c2ccccc2)[C@H](c2ccccc2)C1 [Compound I-86]
14,< 100,COCCN1C[C@@H](NC(=O)Nc2c(C)c(-c3cnc(OC)c(C(=O)NC#N)c3)nn2-c2ccccc2)[C@H](c2ccccc2)C1 (racemic) [Compound I-146]
15,< 100,COCC[C@@H]1C[C@@H](NC(=O)Nc2c(C)c(-c3cc(C(=O)OC)c(=O)n(C)c3)nn2-c2ccccc2)[C@H](c2ccccc2)C1 [Compound I-116]
16,< 100,CNC(=O)c1cc(-c2nn(-c3ccccc3)c(NC(=O)N[C@@H]3CN(CCOC)C[C@H]3c3ccccc3)c2C)cnc1OC(F)F (racemic) [Compound I-128]
17,< 100,COCCN1C[C@@H](NC(=O)Nc2c(C)c(-c3cnc(N=S(C)(C)=O)c(C)c3)nn2-c2ccccc2)[C@H](c2ccccc2)C1 (racemic) [Compound I-121]
18,< 100,COCCN1C[C@@H](NC(=O)Nc2c(C)c(-c3cc(C(=O)NO)c(=O)n(C)c3)nn2-c2ccccc2)[C@H](c2ccccc2)C1 (racemic) [Compound I-139]
19,< 100,CNC(=O)c1cc(-c2nn(-c3ccccc3)c(NC(=O)N[C@@H]3CN(CCOC)C[C@H]3c3ccccc3)c2C)cnc1OCCOC (racemic) [Compound I-124]
20,< 100,COCC[C@@H]1C[C@@H](NC(=O)Nc2c(C)c(-c3cc(C(=O)NC4CCOCC4)c(=O)n(C)c3)nn2-c2ccccc2)[C@H](c2ccccc2)C1 [Compound I-118]
21,< 100,COCCN1C[C@@H](NC(=O)Nc2c(C)c(-c3cc(C(=O)N[C@@H]4CCCOC4)c(=O)n(C)c3)nn2-c2ccccc2)[C@H](c2ccccc2)C1 (racemic) [Compound I-109]
22,< 100,CNC(=O)c1cc(-c2nn(-c3ccccc3)c(NC(=O)N[C@@H]3CN(CCOC)C[C@H]3c3ccccc3)c2C)cnc1OCCO (racemic) [Compound I-123]
23,< 100,COCC[C@@H]1C[C@@H](NC(=O)Nc2c(C)c(-c3cc(C(=O)NO)c(=O)n(C)c3)nn2-c2ccccc2)[C@H](c2ccccc2)C1 [Compound I-120]
24,< 100,COCC[C@@H]1C[C@@H](NC(=O)Nc2c(C)c(-c3cnc4c(c3)oc(=O)n4C)nn2-c2ccccc2)[C@H](c2ccnc(F)c2)N1C [Compound I-170]

# Same assay, conditions: human TrkA phosphorylation inhibition, ATP 500 μmol/L; read-out: IC50 value
row,IC50 [nM],Compound
1,3.1,COCCN1C[C@@H](NC(=O)Nc2c(C)c(-c3cnc4c(c3)oc(=O)n4C)nn2-c2ccccc2)[C@H](c2ccccc2)C1 (racemic) [Compound I-76]

# Source: patent US10533006B2, “Nitrogen-containing heterocycle and carbocycle derivatives having TrkA inhibitory activity” (Shionogi & Co., Ltd., priority 2016, dated 2020)
